# Measured values: the NIST ThermoML archive (doi:10.1021/je0505366)
# Numbers after ± are expanded uncertainties.
# What was measured:
# [1] = Liquid; for mass density: 101.33 kPa; for vapor or sublimation pressure: 383.15 K, Ebulliometric method (Recirculating still)
# [2] = refractive index (Na D-line) (dimensionless); details: 101.33 kPa, Liquid, Standard Abbe refractometry
SMILES,mass density ([1]; 293.15 K) [kg/m3],vapor or sublimation pressure [1] [kPa],refractive index ([2]; 293.15 K),further results
Nc1ccccc1 [aniline],1021.72 ± 0.18,9.21 ± 0.02,1.5862 ± 0.0007,–
NC1CCCCC1 [cyclohexylamine],–,–,–,mass density ([1]; 303.15 K): 858.2 ± 0.23 kg/m3; refractive index ([2]; 288.15 K): 1.4624 ± 0.0007
CCCCCCCC [octane],–,64.09 ± 0.07,–,mass density ([1]; 298.15 K): 698.49 ± 0.39 kg/m3; refractive index ([2]; 298.15 K): 1.3946 ± 0.0007
Cc1ccccc1 [toluene],866.78 ± 0.23,–,1.496 ± 0.0007,–
O [water],–,–,1.3336 ± 0.0007,–
